# Experimental data taken from patent publication US10449183B2, “Methods for inhibiting preterm labor and uterine contractility disorders and preventing cervical ripening” (DIGNITY HEALTH, priority 2010, dated 2019).
# “Also recorded” adds a separate entry of the source. Read-outs that look alike come from different tables or passages of the source.
# Tests used:
# [1] = tested on: pregnant rats; test: Time of delivery of timed-pregnant rats (hours after 8 a.m. of day 22 of gestation); format: in vivo, Sprague-Dawley rats; conditions: for delay of delivery compared to vehicle control: from day 13
# Source text: Nonpregnant and timed-pregnant Sprague-Dawley rats (200-250 g) from Charles-River Laboratories (Wilmington, Mass., USA) were delivered to animal care facilities on day 12 of gestation (day 1 being the day when a sperm plug was observed). The animals were housed separately, with free access to food and water and maintained on a constant 12-hour light-dark cycle. Control pregnant rats were spontaneously delivering on day 22 and 23 of gestation. For the measurements with the collascope the animals were anaesthetized (interperitoneal (i.p). injection) with a combination of xylazine (Gemini, Burns Veterinary Supply Inc, Rockville Center, N.Y., USA) and ketamine HCl (Ketaset; Fort Dodge Laboratories Inc, Fort Dodge, Iowa, USA). The animals were randomly allocated to one of the groups and sacrificed by carbon dioxide inhalation on day 3, 5, 7 and 10 postpartum or on day 25 of pregnancy in the groups with delayed delivery. All procedures were approved by the Animal Care and Use Committee of the St. Joseph's Hospital and Medical Center in Phoenix.
# Prior to any treatment LIF measurements were made in control rats throughout pregnancy and postpartum to estimate the LIF profile during gestation (see FIG. 1). Pregnant rats (N=6/group) were treated (see FIG. 2), when not otherwise mentioned (see FIG. 3), from day 13 of pregnancy until delivery. Single daily treatments were performed at 8 a.m. and twice a day treatments at 8 a.m. and 8 p.m. All single injections (4 mg P4, 10 mg 17P, 2 mg promegestone (R5020)) were by the subcutaneous route (s.c.) in sesame oil (0.2 ml), which was also used for the controls. Vaginal gels were applied twice a day with a blunt ball-top needle deep into the vagina. Crinone was used for the P4 vaginal group (equivalent volumes of Crinone were used for 2-15 mg P4/treatment), all data presented show the results of the highest dose (total daily dose of 30 mg P4=⅓ of a applicator of 8% Crinone that contains 90 mg P4). For the vaginal promegestone (R5020) group micronized promegestone (R5020) (1 mg/treatment) was mixed into 0.18 ml of Replens. The control rats for the vaginal groups were treated with Replens (0.18 ml/treatment). For oral P4 treatments (15 mg, bid, vehicle sesame oil or H2O, volume 1 ml) gavage was used. For topical P4 treatment (15 mg, bid, P4 in 1 ml sesame oil, fish oil or in Replens) the drug was applied on the back of animals that were shaved on day 13, 17 and 21. In some animals (N=6) RU-486 (3 mg in 0.2 ml sesame oil) was injected subcutaneously once on day 16 of gestation.
# Times of delivery (see also FIG. 4) of controls and various treatment groups were determined as hours after 8 a.m. of day 22 of gestation (FIG. 5). The expulsion of one pup was defined as delivery.
# The cervical LIFs obtained at different times of gestation (FIG. 1) were compared using one-way analysis of variance (ANOVA) and multiple pairwise comparison procedures (Holm-Sidak). Student's t-test was used to compare the LIF results of a treatment group to its specific control group at any time in gestation and postpartum and also to determine the differences in delivery times (FIGS. 2, 3 and 5). A two-tailed probability value of P<0.05 was considered statistically significant.
# FIG. 15 depicts delay of delivery times in timed pregnant rats treated with progesterone (P4) with different routes and vehicles. Treatment was started on day 13 of gestation and continued until delivery of pups or until delivery was blocked at […] (day 25) past day 22 of gestation. 8 am on day 22 is noted as hour 0 and delay is compared to control group treated only with vehicle. Treatment groups included: P4 in fish oil (vaginal, nasal, injection and topical groups), P4 in cocoa butter (rectal) and P4 in sesame oil (oral). All treatment groups received a total daily dose of 30 mg P4/day except the nasal and subcutaneous injection group which received 1 mg/day and 4 mg/day, respectively. […]
# [2] = tested on: human myometrium; test: Human myometrial contractility in vitro (organ chamber / muscle bath); format: cell-based
# Source text: The inventors tested whether a soluble form of progesterone would inhibit human myometrial contractility in vitro (FIG. 7). FIG. 7 is a schematic drawing of the muscle bath that is used to measure uterine contractility in vitro. The system consists of a water jacketed chamber to maintain temperature at 37 degrees and an inner chamber where the tissue is suspended in Krebs'-Ringer solution and bubbled with air. The tissue is connected to a force transducer and the signals from the transducer are amplified, stored and analyzed by a data acquisition system. The inventors examined the direct effects of various tocolytics on uterine contractility with and without progesterone, as it was possible that a tocolytic used with progesterone would produce additive, synergistic or antagonistic action on contractility.
# [3] = cited from earlier work
# [4] = tested on: myometrium; conditions: P4 at concentrations equivalent to those present in the placenta and uterus; cited from earlier work
# [5] = Plasma progesterone levels in pregnant rats after various treatments; format: in vivo
# Procedure: FIG. 6 depicts plasma levels of progesterone following various treatments. Plasma progesterone (P4) levels in pregnant rats at day 18 and 21 days of gestation after treatment with P4 vaginal gel (15 mg bid), P4 injections (4 mg subcutaneous daily), topical P4 in fish oil (15 mg bid) and controls (Ctr) treated with vehicles. FIG. 24 depicts pharmokinetic data related to plasma serum levels after topical delivery in rats following various treatments on day 19 of gestation (single treatment only).
# [6] = single treatment only on day 19 of gestation
smiles,measurement,setting,value
"CC(=O)[C@H]1CC[C@H]2[C@@H]3CCC4=CC(=O)CC[C@]4(C)[C@H]3CC[C@]12C [P4, progesterone]",delay of delivery compared to controls,[1]; P4 30 mg/day in DHA (docosahexanoic acid) from day 20,significant delays when compared to controls
same,delay of delivery compared to controls,[1]; P4 30 mg/day in EPA (eicosapentanoic acid) from day 20,All treatment groups except EPA had significant delays
same,delay of delivery compared to controls,[1]; P4 30 mg/day in GNC Triple Strength fish oil from day 20,significant delays when compared to controls
same,delay of delivery compared to controls,[1]; P4 30 mg/day in Neptune Krill Oil from day 20,significant delays when compared to controls
same,delay of delivery compared to controls,[1]; P4 30 mg/day in Nutrasea fish oil from day 20,significant delays when compared to controls
same,delay of delivery compared to controls,[1]; P4 30 mg/day in Nutrasea+D fish oil from day 20,significant delays when compared to controls
same,delay of delivery compared to controls,[1]; P4 30 mg/day in Omegasorb GNC fish oil from day 20,complete block of delivery
same,delay of delivery,"[1]; P4 in fish oil, s.c. or topical, all groups begun on days 19, 20, 21 or 22",significant delay of delivery
same,block of delivery,"[1]; P4 in fish oil, subcutaneous injection begun on day 21",complete block in all animals
same,block of delivery,"[1]; P4 in fish oil, topical application begun on day 19",complete block in all animals
same,delivery,"[1]; P4 in fish oil, treatment begun just prior to delivery on day 22",blocked or significantly delayed
same,effect on delivery,[1]; oral P4 15 mg bid by gavage in sesame oil or H2O from day 13,Delivery was not changed; also recorded: no effect on time of delivery
same,delay of delivery compared to vehicle control,"[1]; rectal P4 in cocoa butter, 30 mg P4/day",significant delay of delivery
same,effect on delivery,"[1]; s.c. injection daily in sesame oil from day 13 (P4 4 mg, 17P 10 mg, R5020 2 mg)",inhibits delivery; also recorded: completely blocked delivery; also recorded: prevented delivery; also recorded: completely inhibited; also recorded: delivery is inhibited
same,delay of delivery compared to vehicle control,"[1]; subcutaneous injection of P4 in fish oil, 4 mg/day",significant delay of delivery
same,delay of delivery,[1]; topical P4 15 mg bid in Omegasorb fish oil from day 19,significant delay of delivery
same,effect on delivery,[1]; topical P4 15 mg bid in Replens from day 13,Delivery was not changed; also recorded: not at all
same,delay of delivery,[1]; topical P4 15 mg bid in coconut oil from day 19,significant delay of delivery
same,delay of delivery,[1]; topical P4 15 mg bid in corn oil from day 19,All groups but corn oil had significant delay of delivery
same,effect on delivery,[1]; topical P4 15 mg bid in fish oil from day 13,inhibits delivery; also recorded: completely
same,delay of delivery,[1]; topical P4 15 mg bid in olive oil from day 19,significant delay of delivery
same,effect on delivery,[1]; topical P4 15 mg bid in sesame oil from day 13,inhibits delivery; also recorded: only partially
same,delay of delivery compared to vehicle control,"[1]; topical P4 in fish oil, 30 mg P4/day",significant delay of delivery
same,effect on delivery,[1]; vaginal bid from day 13 (P4 15 mg as Crinone; R5020 1 mg in Replens),Delivery was not changed; also recorded: failed to inhibit delivery; also recorded: no effect on cervical ripening and on delivery; also recorded: no significant effect on delaying term delivery
same,effect on human myometrial contractions,[2]; 10^−4M progesterone,inhibited myometrial contractions
same,contractile inhibition of the combination,"[2]; P4 (10^-5 M) with indomethacin (IND), term, not in labor","increase contractile inhibition, by additive or synergistic actions"
same,contractile inhibition of the combination,"[2]; P4 (10^-5 M) with nifedipine (Nife), term, not in labor","increase contractile inhibition, by additive or synergistic actions"
same,effect on pinacidil inhibition of contractility,"[2]; P4 (10^−5M) with pinacidil (10^−6.5M), term, not in labor",decreases pinacidil inhibition of contractility
same,effect on myometrial contractility,[2]; P4 soluble and crystalline in ETOH,inhibits myometrial contractility
same,half life,[3]; background statement,roughly 32 hours
same,half life,[3]; statement under advantages,about 30 minutes
same,spontaneous myometrial contractility,[4],inhibits spontaneous myometrial contractility
same,"plasma circulation levels of progesterone, topical compared to vaginal or subcutaneous injection","[5]; day 21, topical P4 in fish oil 15 mg bid vs vaginal gel 15 mg bid or 4 mg s.c. daily",highly effective in increasing plasma circulation levels of progesterone
same,persistence of raised plasma levels following administration,[5]; single topical treatment on day 19 of gestation,"persist for 1, 2, or more days"
same,plasma levels after topical delivery,[5]; [6],increase markedly
same,plasma levels after topical delivery compared with subcutaneous injection,[5]; [6],even higher than subcutaneous injection
